What all share (experiment): relative viability (nuclei count vs DMSO), 5 days (fraction); higher = more cells survive
Compound in the test “MK-8033 + Vorinostat”: Cn1cc(-c2cnc3ccc4ccc(CS(=O)(=O)NCc5ccccn5)cc4c(=O)c3c2)cn1 [MK-8033] + O=C(CCCCCCC(=O)Nc1ccccc1)NO [Vorinostat] (partner 1 µM)
Summed up:
(§1)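 Lung cancer cell lines in 1536-well plates were dosed by pin tool the day after seeding, either with one drug alone or with a fixed anchor-drug dose plus five library-drug doses (not always all listed) in √10 steps. After 5 days, cells were fixed and their nuclei stained in one step (final 0.05% Triton X-100, 1% formaldehyde, 1 ug/ml Hoechst), then counted on 4× images. Relative viability is the nuclei count in treated wells divided by that in vehicle wells. Values are medians of duplicate plates.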

Compound in the test “MK-8033 + Pictilisib”: Cn1cc(-c2cnc3ccc4ccc(CS(=O)(=O)NCc5ccccn5)cc4c(=O)c3c2)cn1 [MK-8033] + CS(=O)(=O)N1CCN(Cc2cc3nc(-c4cccc5[nH]ncc45)nc(N4CCOCC4)c3s2)CC1 [Pictilisib] (partner 1 µM)
In outline: as §1

Compound in the test “Irinotecan + OSI-027”: CCc1c2c(nc3ccc(OC(=O)N4CCC(N5CCCCC5)CC4)cc13)-c1cc3c(c(=O)n1C2)COC(=O)[C@]3(O)CC [Irinotecan] + COc1cccc2cc(-c3nc([C@H]4CC[C@H](C(=O)O)CC4)n4ncnc(N)c34)[nH]c12 [OSI-027] (partner 0.5 µM)
In outline:
as §1

Compound in the test “RU-SKI 43 + Tozasertib”: CC[C@@H](C)CNCC(=O)N1CCC2=C([C@@H]1COC3=CC=CC(=C3)C)C=CS2 [RU-SKI 43] + Cc1cc(Nc2cc(N3CCN(C)CC3)nc(Sc3ccc(NC(=O)C4CC4)cc3)n2)n[nH]1 [Tozasertib] (partner 0.1 µM)
Summed up:
as §1

Consider PC-14, for which the relative viability in the test with MK-8033 + Vorinostat (first compound 0.02 µM) worked out at 0.708; in the test with MK-8033 + Vorinostat (first compound 0.06325 µM) it was 0.52; with MK-8033 + Vorinostat (first compound 0.2 µM) it was 0.683; in the test with MK-8033 + Vorinostat (first compound 0.6325 µM), 0.797; with MK-8033 + Vorinostat (first compound 2 µM), 0.599; with MK-8033 + Pictilisib (first compound 0.02 µM), 0.652. Besides, the relative viability with MK-8033 + Pictilisib (first compound 0.06325 µM) was 0.514; with MK-8033 + Pictilisib (first compound 0.2 µM) it was 0.738; with MK-8033 + Pictilisib (first compound 0.6325 µM) it was 0.545; with MK-8033 + Pictilisib (first compound 2 µM), 0.623; with Irinotecan + OSI-027 (first compound 0.6325 µM), 0.286; with Irinotecan + OSI-027 (first compound 2 µM), 0.498. Also, the relative viability with Irinotecan + OSI-027 (first compound 6.325 µM) is 0.243; in the test with Irinotecan + OSI-027 (first compound 20 µM) it was 0.117; in the test with RU-SKI 43 + Tozasertib (first compound 0.1 µM), 0.635; with RU-SKI 43 + Tozasertib (first compound 0.3162 µM), 0.522; with RU-SKI 43 + Tozasertib (first compound 1 µM), 0.7; in the test with RU-SKI 43 + Tozasertib (first compound 3.162 µM), 0.554. The relative viability with RU-SKI 43 + Tozasertib (first compound 10 µM) is 0.471.

Regarding RERF-LC-KJ, the relative viability amounted to 0.726 with MK-8033 + Vorinostat (first compound 0.02 µM); 0.599 with MK-8033 + Vorinostat (first compound 0.06325 µM); 0.664 in the test with MK-8033 + Vorinostat (first compound 0.2 µM); 0.707 with MK-8033 + Vorinostat (first compound 0.6325 µM); 0.597 in the test with MK-8033 + Vorinostat (first compound 2 µM); 0.508 with MK-8033 + Pictilisib (first compound 0.02 µM). Moreover, the relative viability in the test with MK-8033 + Pictilisib (first compound 0.06325 µM) was determined as 0.417; in the test with MK-8033 + Pictilisib (first compound 0.2 µM), 0.519; with MK-8033 + Pictilisib (first compound 0.6325 µM) it was 0.501; with MK-8033 + Pictilisib (first compound 2 µM) it was 0.533; in the test with Irinotecan + OSI-027 (first compound 0.6325 µM), 0.364; with Irinotecan + OSI-027 (first compound 2 µM), 0.492. Further, the relative viability came out at 0.534 with Irinotecan + OSI-027 (first compound 6.325 µM); 0.112 with Irinotecan + OSI-027 (first compound 20 µM); 0.458 with RU-SKI 43 + Tozasertib (first compound 0.1 µM); 0.583 with RU-SKI 43 + Tozasertib (first compound 0.3162 µM); 0.476 with RU-SKI 43 + Tozasertib (first compound 1 µM); 0.505 with RU-SKI 43 + Tozasertib (first compound 3.162 µM). Further, in the test with RU-SKI 43 + Tozasertib (first compound 10 µM), the relative viability was 0.352.

Consider SK-LU-1, for which the relative viability with MK-8033 + Vorinostat (first compound 0.02 µM) is 0.829; with MK-8033 + Vorinostat (first compound 0.06325 µM), 0.897; in the test with MK-8033 + Vorinostat (first compound 0.2 µM), 0.704; with MK-8033 + Vorinostat (first compound 0.6325 µM) it was 0.778; in the test with MK-8033 + Vorinostat (first compound 2 µM) it was 0.685; with MK-8033 + Pictilisib (first compound 0.02 µM), 0.658. Besides, the relative viability is 0.499 with MK-8033 + Pictilisib (first compound 0.06325 µM); 0.449 in the test with MK-8033 + Pictilisib (first compound 0.2 µM); 0.54 in the test with MK-8033 + Pictilisib (first compound 0.6325 µM); 0.622 in the test with MK-8033 + Pictilisib (first compound 2 µM); 0.302 with Irinotecan + OSI-027 (first compound 0.6325 µM); 0.301 in the test with Irinotecan + OSI-027 (first compound 2 µM). For the same cell line, the relative viability in the test with Irinotecan + OSI-027 (first compound 6.325 µM) came out at 0.293; in the test with Irinotecan + OSI-027 (first compound 20 µM), 0.238; with RU-SKI 43 + Tozasertib (first compound 0.1 µM), 0.331; with RU-SKI 43 + Tozasertib (first compound 0.3162 µM), 0.365; with RU-SKI 43 + Tozasertib (first compound 1 µM) it was 0.322; in the test with RU-SKI 43 + Tozasertib (first compound 3.162 µM), 0.305. Moreover, the relative viability in the test with RU-SKI 43 + Tozasertib (first compound 10 µM) came to 0.287.

Regarding SK-MES-1, the relative viability with MK-8033 + Vorinostat (first compound 0.02 µM) worked out at 1.2; in the test with MK-8033 + Vorinostat (first compound 0.06325 µM), 0.987; with MK-8033 + Vorinostat (first compound 0.2 µM), 1.03; with MK-8033 + Vorinostat (first compound 0.6325 µM) it was 1.04; with MK-8033 + Vorinostat (first compound 2 µM) it was 1.03; with MK-8033 + Pictilisib (first compound 0.02 µM) it was 0.334. The relative viability in the test with MK-8033 + Pictilisib (first compound 0.06325 µM) worked out at 0.301; with MK-8033 + Pictilisib (first compound 0.2 µM), 0.328; with MK-8033 + Pictilisib (first compound 0.6325 µM) it was 0.405; in the test with MK-8033 + Pictilisib (first compound 2 µM), 0.349; with Irinotecan + OSI-027 (first compound 0.6325 µM), 0.428; with Irinotecan + OSI-027 (first compound 2 µM), 0.538. For the same cell line, the relative viability was 0.434 in the test with Irinotecan + OSI-027 (first compound 6.325 µM); 0.15 in the test with Irinotecan + OSI-027 (first compound 20 µM); 0.9 in the test with RU-SKI 43 + Tozasertib (first compound 0.1 µM); 1.14 with RU-SKI 43 + Tozasertib (first compound 0.3162 µM); 1.04 with RU-SKI 43 + Tozasertib (first compound 1 µM); 0.924 in the test with RU-SKI 43 + Tozasertib (first compound 3.162 µM). Also, the relative viability with RU-SKI 43 + Tozasertib (first compound 10 µM) is 0.754.

Consider SW 1573, for which the relative viability with MK-8033 + Vorinostat (first compound 0.02 µM) was determined as 0.836; in the test with MK-8033 + Vorinostat (first compound 0.06325 µM), 0.681; with MK-8033 + Vorinostat (first compound 0.2 µM), 0.7; with MK-8033 + Vorinostat (first compound 0.6325 µM), 0.729; with MK-8033 + Vorinostat (first compound 2 µM), 0.667; in the test with MK-8033 + Pictilisib (first compound 0.02 µM), 0.55. The relative viability with MK-8033 + Pictilisib (first compound 0.06325 µM) was found to be 0.414; with MK-8033 + Pictilisib (first compound 0.2 µM), 0.462; with MK-8033 + Pictilisib (first compound 0.6325 µM) it was 0.463; with MK-8033 + Pictilisib (first compound 2 µM) it was 0.42; with Irinotecan + OSI-027 (first compound 0.6325 µM), 0.213; with Irinotecan + OSI-027 (first compound 2 µM) it was 0.566. The relative viability with Irinotecan + OSI-027 (first compound 6.325 µM) came to 0.231; with Irinotecan + OSI-027 (first compound 20 µM), 0.122; with RU-SKI 43 + Tozasertib (first compound 0.1 µM) it was 0.209; with RU-SKI 43 + Tozasertib (first compound 0.3162 µM), 0.22; with RU-SKI 43 + Tozasertib (first compound 1 µM), 0.204; in the test with RU-SKI 43 + Tozasertib (first compound 3.162 µM), 0.123. For the same cell line, the relative viability with RU-SKI 43 + Tozasertib (first compound 10 µM) is 0.196.

These data come from the supplement of paper PMC10307832.
